Patent US11634447B2 (priority 2012, dated 2023)

Legend:
FimH-CRD [1] = biological target: T1, FimH-CRD (Escherichia coli, UniProt P08191); assay: Competitive binding assay by fluorescence polarization, assay 2 (compounds prepared by a robotics system, plates frozen and thawed); parameters: species or system E. coli
T1 construct: The first 177 amino acids of the FimH protein are expressed as a fusion protein; thrombin tag (printed as 'fusion protein with thrombin') (cleaved yes); made in house; host or cells: bacteria (pET21b plasmid)
T1 sequence (P08191 22-177): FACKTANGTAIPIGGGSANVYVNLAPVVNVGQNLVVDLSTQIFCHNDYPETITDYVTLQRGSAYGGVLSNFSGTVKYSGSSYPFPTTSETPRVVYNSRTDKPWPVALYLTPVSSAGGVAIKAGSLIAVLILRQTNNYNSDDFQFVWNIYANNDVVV
Method in brief: (§1)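 FimH-CRD (residues 1-177, tag removed) at 60 nM competed against 5 nM Alexa 647 mannoside probe in 50 mM Tris-Cl pH 7.0, 100 mM NaCl, 1 mM EDTA, 5 mM β-mercaptoethanol, 0.05% BSA, 2.5% DMSO; 5 h, room temperature, dark. Compounds 0.4 nM-75 μM final, 12-point 3-fold, duplicate; Kd from fluorescence polarization displacement curves. Assay 1: manual dilution; assay 2: robotic dilution, plates frozen/thawed.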

FimH-CRD [2] = biological target: T1, FimH-CRD; assay: Competitive binding assay by fluorescence polarization, assay 1 (compounds prepared by manual dilution); parameters: species or system E. coli
Method in brief: as §1

Measured: Kd

OC[C@H]1O[C@H](Cc2ccc(-c3ccc(C[C@H]4O[C@H](CO)[C@@H](O)[C@H](O)[C@@H]4O)cc3)cc2)[C@@H](O)[C@@H](O)[C@@H]1O [Compound 41, ((2R,3S,4R,5S,6R)-2-(Hydroxymethyl)-6-[[4-[4-[[(2R,3S,4R,5S,6R)-3,4,5-trihydroxy-6-(hydroxymethyl)tetrahydropyran-2-yl]methyl]phenyl]phenyl]methyl]tetrahydropyran-3,4,5-triol)]
< 5 nM: FimH-CRD [1]; Assay 2 Kd, 5 nM Alexa 647 mannoside probe, 60 nM FimH-CRD, replicate values in one cell | FimH-CRD [1]; read-out: Assay 2 Kd, 5 nM Alexa 647 mannoside probe, 60 nM FimH-CRD, replicate values in one cell | FimH-CRD [2]; Assay 1 Kd, 5 nM Alexa 647 mannoside probe, 60 nM FimH-CRD, replicate values in one cell | FimH-CRD [2]; read-out: Assay 1 Kd, 5 nM Alexa 647 mannoside probe, 60 nM FimH-CRD, replicate values in one cell
